This is an account of results in article PMC11589483, “Preparation and anti-colon cancer effect of a novel curcumin analogue (CA8): in vivo and in vitro evaluation” (Frontiers in Pharmacology, 2024).

The test system of data set [1] is cervical cancer cells HeLa. Kind of data set: MTT antiproliferative assay, HeLa. It is filed as cell-based. The conditions noted are these: Homo sapiens. As to the method: (§1) The human cancer cell lines A549, HepG2, MCF-7, Caco-2, and HeLa and the normal human liver cell line LO2 were all obtained from Shanghai Cell Bank of China. All cells were cultured in RPMI 1640 or DMEM supplemented with 10% fetal bovine serum, 100 U/mL penicillin, and 100 μg/mL streptomycin and incubated at 37°C under 5% CO2 (HEPA incubator class100 Thermo company). The medium was replaced three times a week. Cells used in all were in the exponential growth phase.
(§2) The cell inhibition rate was evaluated using the MTT assay. Briefly, cells were seeded in a 96-well plate at a density of 3–4 × 10^3 cells per well and incubated at 37°C for 24 h. The MCACs to be tested were dissolved in dimethyl sulfoxide (DMSO, Merck, Germany) and diluted to five concentrations (3.75, 7.5, 15, 30, 60 μM/L) with RPMI 1640 medium, with each dose analyzed in quadruplicate. The concentration of DMSO was always maintained below 1‰, a concentration that is nontoxic to cells. After incubation for 24 or 48 h, MTT reagent (5 mg/mL) was added to each well and the samples were incubated for 3 h at 37°C in the dark. The absorbance of formazan crystals dissolved in 150 µL of DMSO was measured at 570 nm using a microplate reader to identify the cytotoxic effect of the analogues.
For orientation: Tetrazolium dyes change colour on reduction, which living cells bring about.

The test system of data set [2] is Caco-2 cells. Kind of data set: Apoptosis assay (Annexin V-FITC/propidium iodide flow cytometry). The format is cell-based, human. The note with it: 4, 8, 16 μM, 24 h. The method, then: The apoptotic effect of CA8 was assessed in Caco-2 cells according to the kit instructions. First, Caco-2 cells were treated with CA8 at dose of 4, 8, or 16 μM/L for 24 h. The cells were harvested and suspended in 500 μL annexin-binding buffer. Subsequently, the cells were stained with Annexin V-FITC for 15 min and then incubated with propidium iodide for 5 min at room temperature in the dark. Finally, all samples were evaluated via flow cytometry (FACS Calibur, BD, San Jose, CA, United States). The results obtained were analyzed using the FlowJo software, and the apoptotic rate was calculated.

Data set [3] relates to AKT, JNK, and NF-κB signaling pathways and apoptosis-related proteins. Kind of data set: Western blot of signaling and apoptosis proteins in Caco-2 cells. The note with it: 24 h. It is filed as cell-based, human. The method, then: The expression of apoptotic proteins and pathways was detected using western blot. Caco-2 cells treated with CA8 at a dose of 4, 8, or 16 μM/L for 24 h were collected and lysed with RIPA lysis buffer for 10 min. The concentration of total proteins was determined using a BCA protein quantitative kit. Total proteins were separated on an SDS-PAGE gel, transferred to PVDF membranes and incubated with 5% skim milk for 2 h. Subsequently, the PVDF membranes were incubated with primary antibodies (AKT 1:2000; Bcl-2 1:2000; Bax 1:5000; caspase-3 1:2,000; caspase-9 1:1000; P-AKT 1:1000; JNK 1:1000; P-JNK 1:1000; IKBα 1:2000; and β-actin 1:100000) at 4°C overnight. The membranes were rinsed three times with TBST and incubated with secondary antibodies (1:5000 dilution) for 2–3 h at room temperature. Finally, proteins were visualized using an ECL chemiluminescent kit (KF001, affinity). In the final step, the ImageJ software was used to analyze the results.

Data set [4] deals with Caco-2 cells. Kind of data set: Cell cycle analysis (flow cytometry). It is filed as cell-based, human. The note with it: 4, 8, 16 μM, 24 h. As to the method:
Caco-2 cells treated with CA8 at dose of 4, 8, or 16 μM/L for 24 h, they were collected, washed with PBS, and fixed in 70% ethanol overnight. The fixed cells were washed twice with PBS, treated with RNase A (10 mg/mL) and resuspended in 50 μg/mL propidium iodide for staining. Finally, the cell cycle distribution was assessed via flow cytometry (BD Biosciences, CA).
For orientation: Flow cytometry measures light scatter and fluorescence of single cells or particles in a stream.

A further data set has as its system Caco-2 xenograft tumors. The experiment in a line: In vivo anticancer activity, Caco-2 xenograft. As to the method:
Twenty 5-week-old male BALB nude mice purchased from SPF (Beijing) Biotechnology Co., Ltd. were used for the in vivo pharmacodynamic experiment of CA8. Caco-2 cells (6 × 10^6 cells in 100 μL PBS) were harvested and subcutaneously injected into the right hip of the mice. Then, they were divided into four groups when the tumor volume reached 100 mm^3 and treated with saline, CU (100 mg/kg), tegafur (50 mg/kg), or CA8 (100 mg/kg) via gavage every other day. Tumor size and body weight were measured and recorded every other day. At the end of the experiment, the mice were sacrificed and tumors were harvested and weighed. Tumor volumes were calculated by measuring length (L) and width (W) according to the following formula: V = 0.5 × L × W^2. The tumor tissue was embedded in paraffin, cut into slices, stained with HE, and observed under a light microscope.

Data set [5] relates to normal human liver cell line LO2. Kind of data set: MTT assay, normal liver cells LO2. The format is cell-based. As to the method: as §1, §2
Another data set concerns Ki67. Kind of data set: Immunohistochemistry of tumor tissue. The note with it: Caco-2 xenograft, 100 mg/kg. It is filed as in vivo, BALB nude mice.
The subject of another data set is lung cancer cells A549. Kind of data set: MTT antiproliferative assay, A549. It is filed as cell-based. The conditions noted are these: Homo sapiens. As to the method: as §1, §2
Data set [6] concerns breast cancer cells MCF-7. The experiment in a line: MTT antiproliferative assay, MCF-7. The conditions noted are these: Homo sapiens. The format is cell-based. The method, then:
as §1, §2

The mark [7] stands for this setting: Caco-2, 4, 8, 16 μM, vs control.

For the compound `COc1cc(/C=C2\CN(C(C)C)C/C(=C\c3cc(OC)c(O)c(OC)c3)C2=O)cc(OC)c1O` [CA8], the half-inhibitory concentration (IC50) (commonly the midpoint of a concentration-inhibition curve) in data set [1] (24 h) was 4.26 ± 0.52 µM; in data set [1] (48 h) it was 1.96 ± 0.09 µM; in [5] (24 h), 4.3 ± 0.21 µM; in data set [5] (48 h), 2 ± 0.04 µM; in the data set on lung cancer cells A549 (A549, 24 h), 5.66 ± 0.25 µM; in the data set with lung cancer cells A549 (A549, 48 h), 9.31 ± 1.08 µM. Also, the concentration for half-maximal inhibition (IC50) in data set [6] (MCF7, 24 h) is 10.9 ± 4.21 µM; in data set [6] (MCF7, 48 h) it was 7.23 ± 1.55 µM. For the same compound, the “induction of apoptosis” value in the data set with Caco-2 cells [2] is “induced more apoptosis than CU at high and medium concentrations”. For the same compound, the “expression of Bax, caspase-3, and caspase-9” value in data set [3] (Caco-2, 4, 8, 16 μM) was “increased in a concentration-dependent manner”. The “expression of P-AKT” value in data set [3] (setting [7]) is recorded as “inhibited the expression of P-AKT”. Moreover, the “expression of P-JNK and IκBα” value in [3] (setting [7]) is “induced the expression of P-JNK and IκBα in a concentration-dependent manner”. Besides, in data set [3] (Caco-2, high concentration), the “expression of anti-apoptotic protein BCL-2” value is listed as “significantly inhibited”. For the same compound, in the data set on Caco-2 cells [4], the “cell cycle arrest” value is recorded as “induced G2/M phase arrest in a concentration-dependent manner”. The tumor inhibition rate in the data set on Caco-2 xenograft tumors (Caco-2 xenograft nude mice, 100 mg/kg via gavage every other day) is on record as 63.93%. The “HE staining of tumor mass” value in the data set with Caco-2 xenograft tumors (Caco-2 xenograft, 100 mg/kg) is recorded as “large necrotic area in the tumor mass”. For the same compound, in the data set on Caco-2 xenograft tumors (Caco-2 xenograft, CA8 100 mg/kg, CU 100 mg/kg, tegafur 50 mg/kg, gavage every other day), the “inhibitory effect on tumor growth” value was “more significant inhibitory effect on tumor growth than CU and tegafur”. In the data set on Caco-2 xenograft tumors (nude mice, 13 days of therapy, 100 mg/kg gavage), the “body weight change / toxicity during therapy” value is recorded as “did not lead to a significant toxicity”. Moreover, the “expression of Ki67 in tumor tissues” value in the data set on Ki67 is “significantly reduced the expression of Ki67”.
